According to patent publication US7049271B2, “Phenyl-substituted 2-enamino-ketonitriles” (Bayer Aktiengesellschaft, priority 2000, dated 2006):

melting point [°C] | Compound
182 | CN/C(=C(/C#N)C(=O)c1ccc(Cl)cc1)c1ccc(Cl)cc1 [Example 3, 2-(4-chlorobenzoyl)-3-(4-chlorophenyl)-3-(N-methylamino)-propenonitrile]
215 | C/C(NC1CC1)=C(\C#N)C(=S)c1ccc(Cl)cc1 [Example 8, 2-[(4-chlorophenyl)-thiocarbonyl]-3-(N-cyclopropylamino)-crotononitrile]
